Source: patent US20250129021A1, “SMALL MOLECULE PROTEIN SYNTHESIS MODULATORS” (Interdict Bio, Inc., priority 2023, published 2025)

Key:
Type in all cases: biochemical
[1] = tested on: MYC; assay: In vitro transcription-translation (IVTT) assay, MYC reporter; settings: HeLa S3 lysate, 2 hrs at 30° C.
Method in brief: (§1)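 Reporter: mCherry, P2A, then 3×FLAG-target peptide-sfGFP fusion, IRES-initiated; HeLa S3 lysate IVTT; cpd dilutions 30 μM−0.1 μM half-log in 100% DMSO (dilution-plate conc); DNA added last; 2 h, 30° C; PBS quench.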

[2] = tested on: CCND1; assay: In vitro transcription-translation (IVTT) assay, CCND1 reporter; settings: HeLa S3 lysate, sfGFP/mCherry ratio
Method in brief: as §1

[3] = tested on: MCL-1; assay: In vitro transcription-translation (IVTT) assay, MCL-1 reporter; settings: HeLa S3 lysate, sfGFP/mCherry ratio, 2 hrs at 30° C.
Method in brief: as §1

[4] = tested on: BCL-2; assay: In vitro transcription-translation (IVTT) assay, BCL-2 reporter; settings: HeLa S3 lysate, sfGFP/mCherry ratio, 2 hrs at 30° C.
Excerpt: All reporter constructs have been cloned into the pT7CFE1-CHis plasmid (ThermoFisher #88860) using Gibson assembly procedures (NEB #E2611L). The parental pT7CFE1-CHis plasmid contains an EMCV IRES at the 5′UTR for translation initiation, a multiple-cloning site (MCS) for gene insertion, an optional C-terminal His-epitope tag, and polyA sequence in the 3′UTR to regulate mRNA stability. All reporters are designed to be inserted at the MCS to include a red fluorescent protein (mCherry), P2A self-cleaving peptide which releases the preceding mCherry protein product, and a fusion open reading frame containing a 3×FLAG epitope, a peptide sequence of interest (TEST), and green fluorescent protein (sfGFP).
Construct Plasmid Preparation: All plasmids are isolated from MACH1 cells (ThermoFisher) grown overnight in ampicillin-containing luria broth, and purified using ZymoPure Express Plasmid Midiprep Kit (Zymo Research). Constructs are sequenced verified and diluted to a working concentration of 110 ng/μL.
HeLa S3 Lysate Preparation: HeLa S3 cell pellets are acquired from Ipracell/Ipratech (Belgium) and shipped as 4 mL frozen cell pellets on dry ice for storage at −80° C. until use. The procedure for lysate preparation is as follows. Prepare 1× Lysis Buffer, cold and stored on ice:
Each preparation takes 8 cell pellets (4 ml packed volume each, approximately 1.0×10^9 cells per pellet). Thaw cell pellets from −80° C. on ice for 90 mins. Lay pellets horizontally on top of the ice and rotate every 30 mins to ensure even thawing. Once thawed, add 4 mL of cold lysis buffer to each pellet, and using a serological pipet, gently pipet up and down to break up clumps. Incubate resuspended cells in ice for an additional 30 mins (plunged into ice). During 30 min incubation, rinse and RNase-zap (Ambion) glass dounces (use loose pestle “A”), gently dry and place on ice until needed. Prepare RNase-free Eppendorf tubes for spinning and for batch storage. Add batch labels to 1.5-1.7 mL RNase-free microcentrifuge tubes (labeling scheme below). Each batch will have an extra 1.5-1.7 mL RNase-free microcentrifuge tube for 40 μL of lysate, label the top of this tube (labeling scheme below). After 30 min incubation, transfer all 8 mL of cell pellet to dounce. Cell lysis is complete after douncing 100 times. Aliquot cell lysis into 1.5-1.7 mL temporary-microcentrifuge tubes. Place tubes in centrifuge with “fins” out, and spin at 1,200×g for 5 mins. After the first spin use a 1 mL pipet to resuspend each tube and repeat spin. This acts as an additional lysis step, is more vigorous and increases lysate yield. During second spin get liquid N2 and a fresh conical tube on ice. After spin is complete, transfer supernatant (lysate) from microcentrifuge tubes into the 50 mL conical tube and keep on ice. Repeat steps 10-14 for all other cell pellets until completed. Once all cell lysate has been transferred to the 50 mL conical tube pipet to mix so the solution is homogenous. Transfer 1 mL of lysate into batch-labeled microcentrifuge tubes and flash freeze in liquid nitrogen. Be sure to pipet up and down to mix throughout transfer step. Place all tubes in the […] for long-term storage.
In vitro transcription-translation assay setup: Each assay includes a master mix containing lysate and shared components, a 96-well plate containing compound titrations for testing, a 96-well DNA plate with reporter constructs to be tested, 96-well skirted PCR plates, and 96-well flat-bottom, black, fluorescent assay plates. […]

[5] = tested on: NFKB1; assay: In vitro transcription-translation (IVTT) assay, NFKB1 reporter; settings: HeLa S3 lysate, sfGFP/mCherry ratio
Protocol: In vitro transcription-translation assay setup: Each assay includes a master mix containing lysate and shared components, a 96-well plate containing compound titrations for testing, a 96-well DNA plate with reporter constructs to be tested, 96-well skirted PCR plates, and 96-well flat-bottom, black, fluorescent assay plates. Reaction materials setup: (A) Master mix—15 mL conical tube (3 mL of HeLa S3 Lysate described above; 0.6 mL of ThermoFisher Accessory Proteins (#88882); 1.2 ml of ThermoFisher Reaction Mix (#88882); 0.54 mL of nuclease-free Water); (B) 96-Well Master Mix+Compound Plate (Half-log dilutions (30 μM−0.1 μM) of 4 compounds of interest are prepared in 100% DMSO); 96-Well DNA Plate (Five DNA constructs are plated into single columns within the plate. Row 1 of the column contains nuclease free H2O, all other wells contain 110 ng/μL plasmid DNA). Reactions are started by mixing 155 μL of master mix and 3.5 μL of compound serial dilutions, then 9.1 μL of master mix+compound mixture is aliquoted across 5 96-well plates. Reactions begin with final addition of 2 μL of DNA for a 11.1 μL reaction volume in each well. The entire plate is sealed, and incubated for 2 hrs at 30° C. After 2 hrs, quench the assay using 45 μL of PBS, and transfer 50 μL to a flat-bottom black microplate Quantify the sfGFP and mCherry signals from each well on each plate, taking 3 reads of each plate, and perform data analysis below.
In vitro transcription-translation assay data analysis: Each plate is read three times in channels for both sfGFP and mCherry signals. The average signal across these 3 reads is then calculated for further analysis. Control wells containing no DNA reporter are subtracted from reporter wells in the same column to remove auto-fluorescence of the lysate. Then, the ratio of sfGFP/mCherry is calculated per well, and these ratios are averaged across the triplicate experiments on the same plate. Finally, the ratio of each titration concentration is normalized to the no drug control to create the normalized stalling metric. The error on this measurement is determined by propagating error through the averaging and normalization steps. Values are plotted and fit for IC50 determination for each test sequence and titration of compound.

[6] = IVTT assay, MYC reporter, normalized sfGFP/mCherry ratio, half-log dilutions 30 μM-0.1 μM

COc1ccc(C[C@H]2NC[C@H](O)[C@H]2OC(=O)NCc2ccc(I)cc2)cc1 [V187928, (2R,3S,4S)-4-hydroxy-2-[(4-methoxyphenyl)methyl]pyrrolidin-3-yl N-[(4-iodophenyl)methyl]carbamate]
IC50 ([1]; sfGFP/mCherry ratio): 10 to 20 µM | IC50 ([2]; 2 hrs at 30° C.): > 30 µM | IC50 [3]: 10 to 20 µM | IC50 [4]: > 30 µM

COc1ccc(C[C@H]2NC[C@H](O)[C@H]2OC(=O)NCCc2n[nH]cc2C#N)cc1 [Cmpd V188126]
IC50 ([2]; 2 hrs at 30° C.): < 10 µM | IC50 [3]: < 10 µM | IC50 [4]: < 10 µM

COc1ccc(C[C@H]2NC[C@H](O)[C@H]2OC(=O)NCCNC(=O)C2(N)CC2)cc1 [V187919, (2R,3S,4S)-4-hydroxy-2-[(4-methoxyphenyl)methyl]pyrrolidin-3-yl N-{2-[(1-aminocyclopropyl)formamido]ethyl}carbamate]
IC50 ([1]; sfGFP/mCherry ratio): 20 to 30 µM | IC50 ([2]; 2 hrs at 30° C.): > 30 µM | IC50 [4]: > 30 µM

COc1ccc(C[C@H]2NC[C@H](O)[C@H]2OC(=O)NNC(=O)c2ccccc2)cc1 [V187812, N′-({[(2R,3S,4S)-4-hydroxy-2-[(4-methoxyphenyl)methyl]pyrrolidin-3-yl]oxy}carbonyl)benzohydrazide]
IC50 ([1]; sfGFP/mCherry ratio): < 10 µM | IC50 ([2]; 2 hrs at 30° C.): < 10 µM | IC50 [3]: < 10 µM | IC50 [4]: 10 to 20 µM

COc1ccc(C[C@H]2NC[C@H](O)[C@H]2OC(=O)NCc2nc(Cl)c(Cl)[nH]2)cc1 [V187824, (2R,3S,4S)-4-hydroxy-2-[(4-methoxyphenyl)methyl]pyrrolidin-3-yl N-[(4,5-dichloro-1H-imidazol-2-yl)methyl]carbamate]
IC50 ([1]; sfGFP/mCherry ratio): > 30 µM | IC50 ([2]; 2 hrs at 30° C.): > 30 µM | IC50 [3]: > 30 µM | IC50 [4]: > 30 µM

COc1ccc(C[C@H]2NC[C@H](O)[C@H]2OC(=O)NC[C@H]2CCCNC2)cc1 [V187930, (2R,3S,4S)-4-hydroxy-2-[(4-methoxyphenyl)methyl]pyrrolidin-3-yl N-[(3S)-piperidin-3-ylmethyl]carbamate]
IC50 ([1]; sfGFP/mCherry ratio): 20 to 30 µM | IC50 ([2]; 2 hrs at 30° C.): 20 to 30 µM | IC50 [3]: 20 to 30 µM | IC50 [4]: > 30 µM

COc1ccc(C[C@H]2NC[C@H](O)[C@H]2OC(=O)NCCNC(=O)[C@@H]2CCCN2)cc1 [V188015, (2R,3S,4S)-4-hydroxy-2-[(4-methoxyphenyl)methyl]pyrrolidin-3-yl N-{2-[(2S)-pyrrolidin-2-ylformamido]ethyl}carbamate]
IC50 ([2]; 2 hrs at 30° C.): 10 to 20 µM | IC50 [3]: 10 to 20 µM | IC50 [4]: > 30 µM

COc1ccc(C[C@H]2NC[C@H](O)[C@H]2OC(=O)NC[C@@H]2CCCNC2)cc1 [V187929, (2R,3S,4S)-4-hydroxy-2-[(4-methoxyphenyl)methyl]pyrrolidin-3-yl N-[(3R)-piperidin-3-ylmethyl]carbamate]
IC50 ([1]; sfGFP/mCherry ratio): > 30 µM | IC50 [3]: > 30 µM | IC50 [4]: > 30 µM

COc1ccc(C[C@H]2NC[C@H](O)[C@H]2OC(=O)NCc2n[nH]nc2COCc2ccccc2)cc1 [Cmpd V187805]
IC50 ([2]; 2 hrs at 30° C.): > 30 µM | IC50 [3]: > 30 µM | IC50 [4]: > 30 µM

COc1ccc(C[C@H]2NC[C@H](O)[C@H]2OC(=O)NCc2ccncc2Cl)cc1 [V188052, (2R,3S,4S)-4-hydroxy-2-[(4-methoxyphenyl)methyl]pyrrolidin-3-yl N-[(3-chloropyridin-4-yl)methyl]carbamate]
IC50 ([1]; sfGFP/mCherry ratio): < 10 µM | IC50 [3]: < 10 µM | IC50 [4]: 10 to 20 µM

COc1ccc(C[C@H]2NC[C@H](O)[C@H]2OC(=O)NCCc2ccc(-c3ccccc3)cc2)cc1 [V187979]
IC50 ([1]; sfGFP/mCherry ratio): > 30 µM | IC50 [3]: > 30 µM | IC50 [4]: > 30 µM

CNC1(c2cccc(CNC(=O)O[C@@H]3[C@@H](O)CN[C@@H]3Cc3ccc(-c4cnco4)cc3)c2)CC1 [V192289, (2R,3S,4S)-4-hydroxy-2-{[4-(1,3-oxazol-5-yl)phenyl]methyl}pyrrolidin-3-yl N-({3-[1-(methylamino)cyclopropyl]phenyl}methyl)carbamate]
IC50 [1, 6]: < 10 µM | IC50 ([2]; IVTT assay): < 10 µM | IC50 [5]: < 10 µM

O=C(NCc1cccc(F)c1)O[C@@H]1[C@@H](O)CN[C@@H]1Cc1ccc(-c2cnns2)cc1 [V192319, (2R,3S,4S)-4-hydroxy-2-{[4-(1,2,3-thiadiazol-5-yl)phenyl]methyl}pyrrolidin-3-yl N-[(3-fluorophenyl)methyl]carbamate]
IC50 [1, 6]: < 10 µM | IC50 ([2]; IVTT assay): < 10 µM | IC50 [5]: < 10 µM

O=C(NCc1cccc(F)c1)O[C@@H]1[C@@H](O)CN[C@@H]1Cc1ccc(-c2cn3ccnc3s2)cc1 [V192127, (2R,3S,4S)-4-hydroxy-2-[(4-{imidazo[2,1-b][1,3]thiazol-2-yl}phenyl)methyl]pyrrolidin-3-yl N-[(3-fluorophenyl)methyl]carbamate]
IC50 [1, 6]: < 10 µM | IC50 ([2]; IVTT assay): < 10 µM | IC50 [5]: < 10 µM

O=C(NCc1cccc(F)c1)O[C@@H]1[C@@H](O)CN[C@@H]1Cc1ccc(-c2ccns2)cc1 [V192324, (2R,3S,4S)-4-hydroxy-2-{[4-(1,2-thiazol-5-yl)phenyl]methyl}pyrrolidin-3-yl N-[(3-fluorophenyl)methyl]carbamate]
IC50 [1, 6]: < 10 µM | IC50 ([2]; IVTT assay): < 10 µM | IC50 [5]: < 10 µM

O=C(NCCC1CCNCC1)O[C@@H]1[C@@H](O)CN[C@@H]1Cc1ccc(-c2ccc(Cl)s2)cc1 [V192261, (2R,3S,4S)-2-{[4-(5-chlorothiophen-2-yl)phenyl]methyl}-4-hydroxypyrrolidin-3-yl N-[2-(piperidin-4-yl)ethyl]carbamate]
IC50 [1, 6]: < 10 µM | IC50 ([2]; IVTT assay): < 10 µM | IC50 [5]: < 10 µM

O=C(NCC[C@@H]1CCCN1)O[C@@H]1[C@@H](O)CN[C@@H]1Cc1ccc(C(F)F)cc1 [V192893, (2R,3S,4S)-2-(4-(difluoromethyl)benzyl)-4-hydroxypyrrolidin-3-yl (2-((S)-pyrrolidin-2-yl)ethyl)carbamate]
IC50 [1, 6]: < 10 µM | IC50 ([2]; IVTT assay): < 10 µM | IC50 [5]: < 10 µM

(3S,4S,5R)-4-({[(3-fluorophenyl)methyl]carbamoyl}oxy)-5-{[4-(1,3-oxazol-5-yl)phenyl]methyl}pyrrolidin-3-yl acetate [V192392]
IC50 [1, 6]: < 10 µM | IC50 ([2]; IVTT assay): < 10 µM | IC50 [5]: < 10 µM
